# Results from PMC12311259, “Antifibrotic effects of specific targeting of the 5‐hydroxytryptamine 2B receptor (5‐HT2BR) in murine models and ex vivo models of scleroderma skin” (Arthritis & Rheumatology (Hoboken, N.j.), 2025).
# Columns and labels:
# [1] = biological target: Serotonin (5-Hydroxytryptamine) 5-HT4 (gp) (Cavia porcellus, UniProt O70528); assay: Receptor binding, Eurofins Panlabs 272000; set-up: species or system guinea pig
# From the text: (§1) Effects were considered significant if AM1476's mean value was three or more SDs above the vehicle control mean in the agonist assay or three or more SDs below the positive control agonist (5‐nM α‐methylserotonin) mean in the antagonist assay. AM1476 was screened for selectivity against approximately 200 targets using a Eurofins Panlabs Spectrum screen panel including enzymatic and receptor binding assays.
# [2] = biological target: T1, Serotonin (5-Hydroxytryptamine) 5-HT7 (hu) (Homo sapiens, UniProt P34969); assay: Receptor binding, Eurofins Panlabs 272320
# T1 construct: Eurofins Panlabs 272320
# T1 sequence (P34969 whole entry): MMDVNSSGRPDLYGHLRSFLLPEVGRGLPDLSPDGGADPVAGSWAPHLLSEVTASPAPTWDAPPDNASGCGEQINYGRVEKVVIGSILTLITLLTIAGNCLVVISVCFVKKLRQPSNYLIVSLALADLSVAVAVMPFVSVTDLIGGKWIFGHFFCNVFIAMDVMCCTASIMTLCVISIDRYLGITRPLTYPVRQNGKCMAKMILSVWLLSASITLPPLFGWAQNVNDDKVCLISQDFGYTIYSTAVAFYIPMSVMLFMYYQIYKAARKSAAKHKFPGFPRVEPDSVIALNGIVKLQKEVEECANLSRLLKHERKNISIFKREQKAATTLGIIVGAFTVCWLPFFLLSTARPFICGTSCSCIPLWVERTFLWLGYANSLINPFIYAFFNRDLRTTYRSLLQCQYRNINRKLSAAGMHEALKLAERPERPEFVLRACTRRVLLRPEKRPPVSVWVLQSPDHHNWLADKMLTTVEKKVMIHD
# From the text: as §1
# Adrenergic α1D (hu) = biological target: T2, Adrenergic α1D (hu) (Homo sapiens, UniProt P25100); assay: Functionality assay, IP1, Eurofins Panlabs 302080; format: cell-based
# T2 construct: Eurofins Panlabs 302080
# T2 sequence (P25100 whole entry): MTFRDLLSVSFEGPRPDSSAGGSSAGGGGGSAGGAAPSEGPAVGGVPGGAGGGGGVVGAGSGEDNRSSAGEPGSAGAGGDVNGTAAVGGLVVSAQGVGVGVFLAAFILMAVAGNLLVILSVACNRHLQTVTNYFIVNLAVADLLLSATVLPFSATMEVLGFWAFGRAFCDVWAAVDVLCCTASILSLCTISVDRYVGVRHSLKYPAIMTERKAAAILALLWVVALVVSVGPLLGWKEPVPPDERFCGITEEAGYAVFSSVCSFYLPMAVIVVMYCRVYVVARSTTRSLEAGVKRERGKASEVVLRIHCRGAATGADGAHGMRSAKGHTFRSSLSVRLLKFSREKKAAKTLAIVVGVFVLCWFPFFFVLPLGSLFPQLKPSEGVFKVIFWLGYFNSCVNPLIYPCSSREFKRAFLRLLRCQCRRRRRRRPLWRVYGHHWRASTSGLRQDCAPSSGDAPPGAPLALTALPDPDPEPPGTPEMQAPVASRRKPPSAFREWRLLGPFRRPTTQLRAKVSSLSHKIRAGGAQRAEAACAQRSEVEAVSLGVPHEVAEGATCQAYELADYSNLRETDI
# [3] = tested on: cGvHD-induced pulmonary fibrosis; assay: Sclerodermatous cGvHD mouse model, pulmonary fibrosis; format: in vivo
# Experimental: AM1476 was dissolved in sterile distilled water for the ex vivo and in vivo experiments. A concentration of 30 μM was applied for the ex vivo experiment. For the in vivo experiments, 1, 3, or 10 mg/kg was administered orally once or twice daily.
# The B10.D2→BALB/c (H‐2d) minor histocompatibility antigen–mismatched model was performed as described.[9], [10] Briefly, female BALB/c (H‐2d) mice were purchased from Janvier. Male B10.D2 (H‐2d) mice were initially purchased from Jackson Laboratory. All mice were maintained in specific pathogen‐free conditions with sterile pellet food and water and a normal day–night cycle. For isolation of unfractionated bone marrow cells, tibial and femoral bones were prepared under sterile conditions. Phosphate buffered saline (PBS) was used to flush bone marrow cells from bone marrow cavities. Subsequently, bone marrow cells were filtered through 70‐μm nylon meshes (BD Biosciences), followed by erythrocyte hemolysis. The remaining bone marrow cells were kept on ice until transplantation. Transplantation of bone marrow cells and splenocytes was performed as follows: Recipient mice (BALB/c [H‐2d]) eight weeks of age received total body irradiation with 750 cGy. Six hours after irradiation, all BALB/c (H‐2d) recipients received bone marrow from either BALB/c (H‐2d) in a syngeneic transplantation manner or B10.D2 (H‐2d) in an allogeneic transplantation manner. For transplantation, 5 × 10[6] splenocytes and 2 × 10[6] bone marrow cells from donor mice were resuspended in 0.2 mL of PBS and injected via tail veins.[9], [10] […] The outcome of treatment was analyzed seven weeks after transplantation. Eight mice per group were analyzed.
# Skin samples were fixed in 4% formalin for six hours and embedded in paraffin. […] The dermal thickness was quantified on H&E‐stained sections using images captured with a light microscope (Nikon eclipse 80i) at 100‐fold magnification by manually measuring the distance between the epidermal‐dermal junction and the dermal‐subcutaneous fat junction at four sites per mouse.[15], [16] […] Histologic readouts were evaluation of the fibrotic area as the percentage of the total lung area in sirius red–stained sections (two sections per mouse) and quantification of pulmonary changes using the Ashcroft score (four sections per mouse).[17], [18]
# The amount of collagen protein in skin and lung samples was determined by hydroxyproline assay.[19], [20] […] The absorbance was determined at 557 nm with a Spectra MAX 190 microplate spectrophotometer. Absolute values were determined using a standard curved generated with type I collagen (Sigma‐Aldrich).
# [4] = tested on: Bleomycin-induced pulmonary fibrosis; assay: Bleomycin-induced pulmonary fibrosis in mice; format: in vivo, mouse
# Experimental: Pulmonary fibrosis was induced by a single intratracheal instillation of bleomycin (25 μg in 50 μL of 0.9% NaCl).[12] Treatment was initiated at two weeks after the first injection of bleomycin. AM1476 was administered orally at 1, 3, or 10 mg/kg once daily. Solvent (double‐distilled water) was used as a control, and nintedanib at 30 mg/kg orally every day (qd) was included as a comparator. The outcome was analyzed at two and four weeks after the first injection of bleomycin. Mice injected with 0.9% NaCl, the vehicle of bleomycin, served as nonfibrotic controls. Eight mice per group were analyzed.
# Skin samples were fixed in 4% formalin for six hours and embedded in paraffin. Five‐micrometer sections were cut and stained with hematoxylin and eosin (H&E). The dermal thickness was quantified on H&E‐stained sections using images captured with a light microscope (Nikon eclipse 80i) at 100‐fold magnification by manually measuring the distance between the epidermal‐dermal junction and the dermal‐subcutaneous fat junction at four sites per mouse.[15], [16] For lung samples, the whole left lung was fixed in 4% formalin for six hours and embedded in paraffin. Five‐micrometer sections were cut and stained with trichrome and sirius red. Histologic readouts were evaluation of the fibrotic area as the percentage of the total lung area in sirius red–stained sections (two sections per mouse) and quantification of pulmonary changes using the Ashcroft score (four sections per mouse).[17], [18]
# The amount of collagen protein in skin and lung samples was determined by hydroxyproline assay.[19], [20] After digestion in 6 M HCl for three hours at 120°C, the pH of the samples was adjusted to a pH range of 6–7 with 6 M NaOH. Afterward, 0.06 M chloramine T was added to each sample and incubated for 20 minutes at room temperature. Next, 3.15 M perchloric acid and 20% p‐dimethylaminobenzaldehyde were added, and samples were incubated for an additional 20 minutes at 60°C. The absorbance was determined at 557 nm with a Spectra MAX 190 microplate spectrophotometer. Absolute values were determined using a standard curved generated with type I collagen (Sigma‐Aldrich).
# healthy individuals = assay: Phase 1 clinical trial, safety, tolerability and pharmacokinetic profile (NCT04691115); format: in vivo, human; conditions: for Any adverse event / Depressed level of consciousness / Dizziness / Gastrointestinal disorders / Headache / Nausea / Nervous system disorders / Presyncope / Serious adverse event / Syncope: fasted, N = 6
# From the text: These findings prompted us to perform a phase 1 clinical trial investigating safety, tolerability, and the pharmacokinetic profile of AM1476 in healthy individuals (ClinicalTrials.gov identifier NCT04691115). […] An excerpt of the summary of adverse events is found in Supplementary Table S5. […] The anticipated clinical efficacy exposure was well covered by investigated doses.
# [5] = all three doses, vs vehicle-treated mice seven weeks after BMT
# [6] = all doses (1, 3, 10 mg/kg orally once daily), vs vehicle-treated bleomycin-challenged mice
# Serotonin (5-Hydroxytryptamine) 5-HT4 (gp), sequence (O70528 1-358 limits assumed): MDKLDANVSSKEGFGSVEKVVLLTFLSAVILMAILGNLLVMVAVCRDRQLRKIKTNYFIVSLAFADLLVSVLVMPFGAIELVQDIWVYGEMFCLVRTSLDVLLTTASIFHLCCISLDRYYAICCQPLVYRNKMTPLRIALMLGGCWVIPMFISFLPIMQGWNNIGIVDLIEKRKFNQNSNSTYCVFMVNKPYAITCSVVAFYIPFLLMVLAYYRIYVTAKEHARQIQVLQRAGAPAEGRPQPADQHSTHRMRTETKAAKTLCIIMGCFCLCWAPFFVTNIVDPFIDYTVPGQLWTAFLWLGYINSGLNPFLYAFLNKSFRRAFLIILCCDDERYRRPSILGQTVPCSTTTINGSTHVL
structure (smiles),measurement,setting,value
C[C@@H]1CN(C(=N)N)N=C1c1ccc(F)cc1O [AM1476],"% Inhibition at 1 µM, 5-HT4 (gp)",[1]; 1 µM (value in brackets),34%
same,"% Inhibition at 10 µM, 5-HT4 (gp)",[1]; 10 µM,74%
same,"% Inhibition at 1 µM, 5-HT7 (hu)",[2]; 1 µM (value in brackets),39%
same,"% Inhibition at 10 µM, 5-HT7 (hu)",[2]; 10 µM,91%
same,IC50,Adrenergic α1D (hu),7.76 µM
same,"agonistic activity, Adrenergic α1D",Adrenergic α1D (hu); at 30 µM,No significant agonistic activity at 30 µM
same,"hydroxyproline levels, lung, vs mice killed three weeks after BMT",[3]; 10 mg/kg qd,below those of mice killed three weeks after BMT
same,Ashcroft scores,[3]; [5],reduced
same,collagen-covered lung area,[3]; [5],reduced
same,"hydroxyproline content, lung",[3]; [5],reduced
same,"antifibrotic effects relative to comparator, across the different readouts","[4]; AM1476 1, 3, 10 mg/kg orally once daily",comparable to those of nintedanib
same,Ashcroft scores,[4]; [6],decreases
same,collagen-covered area,[4]; [6],decreases
same,hydroxyproline content,[4]; [6],decreases
same,Any adverse event,healthy individuals; 375 mg BID,2 (33.3%) no. of subjects (%)
same,Depressed level of consciousness,healthy individuals; 375 mg BID,0 no. of subjects (%)
same,Dizziness,healthy individuals; 375 mg BID,1 (16.7%) no. of subjects (%)
same,Gastrointestinal disorders,healthy individuals; 375 mg BID,2 (33.3%) no. of subjects (%)
same,Headache,healthy individuals; 375 mg BID,2 (33.3%) no. of subjects (%)
same,Nausea,healthy individuals; 375 mg BID,2 (33.3%) no. of subjects (%)
same,Nervous system disorders,healthy individuals; 375 mg BID,2 (33.3%) no. of subjects (%)
same,Presyncope,healthy individuals; 375 mg BID,0 no. of subjects (%)
same,Serious adverse event,healthy individuals; 375 mg BID,0 no. of subjects (%)
same,Syncope,healthy individuals; 375 mg BID,0 no. of subjects (%)
same,Any adverse event,healthy individuals; 500 mg BID,4 (66.7%) no. of subjects (%)
same,Depressed level of consciousness,healthy individuals; 500 mg BID,0 no. of subjects (%)
same,Dizziness,healthy individuals; 500 mg BID,1 (16.7%) no. of subjects (%)
same,Gastrointestinal disorders,healthy individuals; 500 mg BID,1 (16.7%) no. of subjects (%)
same,Headache,healthy individuals; 500 mg BID,1 (16.7%) no. of subjects (%)
same,Nausea,healthy individuals; 500 mg BID,1 (16.7%) no. of subjects (%)
same,Nervous system disorders,healthy individuals; 500 mg BID,2 (33.3%) no. of subjects (%)
same,Presyncope,healthy individuals; 500 mg BID,0 no. of subjects (%)
same,Serious adverse event,healthy individuals; 500 mg BID,0 no. of subjects (%)
same,Syncope,healthy individuals; 500 mg BID,0 no. of subjects (%)
same,serious adverse events,healthy individuals; healthy individuals,no serious adverse events were reported
same,severity of adverse events,healthy individuals; healthy individuals,most of the adverse events were mild in severity
same,tolerability,healthy individuals; healthy individuals,well tolerated
same,time to steady state,healthy individuals; multiple-dose period,by day two
same,absorption,"healthy individuals; single and multiple oral administration, fasted state",rapidly absorbed
